# Assay results as given in patent US20140155376A1, “PYRROLOPYRAZINE KINASE INHIBITORS” (Hoffmann-La Roche Inc., priority 2010, published 2014).
# Target: T1, JAK3 (recombinant human kinase domain; h-jak3(810-1124)) (Homo sapiens, UniProt P52333)
# T1 construct: h-jak3(810- 1124)-sf9-c; made in house; host or cells: Sf9 insect cells
# Experiment: Determination of IC50 of Janus Kinase (JAK) inhibition: JAK3, radioactive end-point assay with 33P-ATP
# Type: biochemical
# Conditions: JAK3 kinase domain; ATP 1.5 uM, peptide 50 uM, 20 minutes, room temperature, 10% DMSO; read-out: Ic50 h-jak3(810-1124)-sf9-c:no additive
# Source text: Determination of IC50 of Janus Kinase (JAK) Inhibition:
# Enzymes and peptide substrate used are described below: • JAK1: Recombinant human kinase domain from Invitrogen (Cat # PV4774) • JAK3: Recombinant human kinase domain from Millipore (Cat #14-629) or prepared. • JAK2: Recombinant human kinase domain from Millipore (Cat #14-640) • Substrate: N-terminally biotinylated 14-mer peptide derived from activation loop of JAK1 with sequence of the peptide substrate: Biotin-[sequence]
# Assay Conditions Used are Described Below: • Assay Buffer: JAK Kinase Buffer: 50 mM Hepes [pH 7.2], 10 mM MgCl2, 1 mM DTT, • 1 mg/ml BSA. The assay is carried out in this buffer. • Assay Format The kinase activity of all three JAK kinases is measured using a radioactive, end-point assay and with trace amounts of ^33P-ATP. The assays are carried out in 96-well polypropylene plates.
# All concentrations are final in the reaction mixture and all incubations are carried at room temperature. […] Final concentration of DMSO in the reaction is 10%. • 2) Compounds are preincubated with enzyme (0.5 nM JAK3 (commercially available), 0.2 nM JAK3 (prepared), 1 nM JAK2, 5 nM JAK1) for 10 minutes. • 3) Reactions are initiated by the addition of a cocktail of the two substrates (ATP and peptide premixed in the JAK Kinase Buffer). In the JAK2/JAK3 assays, ATP and the peptide are used at concentrations of 1.5 uM and 50 uM, respectively. JAK1 assay is carried out at an ATP concentration of 10 uM and a peptide concentration of 50 uM. • 4) The duration of the assay for JAK2 and JAK3 is 20 minutes. JAK1 assay is carried out for 40 minutes. With all three enzymes, reactions are terminated by the addition of 0.5M EDTA to a final concentration of 100 mM. • 5) 25 ul of terminated reactions are transferred to 150 ul of a 7.5% (v/v) slurry of streptavidin-coated sepharose beads in MgCl2- and CaCl2-free 1× Phosphate Buffered Saline containing 50 mM of EDTA in 96-well, 1.2 um MultiScreen-BV filter plates. • 6) After a 30-minute incubation, the beads are washed under vacuum with the following buffers: • a. 3 to 4 washes with 200 ul of 2M NaCl. • b. 3 to 4 washes with 200 ul of 2M NaCl plus 1% (v/v) phosphoric acid. • c. 1 wash with water. • 7) Washed plates are dried in a 60° C. oven for between 1 to 2 hours. • 8) 70 ul of Microscint 20 scintillation fluid is added to each well of filter plates and after at least 30 minutes of incubation, radioactive counts are measured in a Perkin-Elmer microplate scintillation counter.
# T1 sequence (P52333 810-1124): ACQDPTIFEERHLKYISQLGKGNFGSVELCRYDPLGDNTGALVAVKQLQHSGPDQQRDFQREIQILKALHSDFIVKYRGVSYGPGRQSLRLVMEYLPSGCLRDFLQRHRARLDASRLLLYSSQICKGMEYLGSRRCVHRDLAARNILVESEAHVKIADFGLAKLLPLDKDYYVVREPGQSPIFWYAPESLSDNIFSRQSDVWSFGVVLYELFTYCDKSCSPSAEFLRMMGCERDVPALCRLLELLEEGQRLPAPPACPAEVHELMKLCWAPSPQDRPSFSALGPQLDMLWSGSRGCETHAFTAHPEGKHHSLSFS
row,IC50 [nM],Compound
1,0.11,"Cc1cc(-c2cnc3[nH]cc(C(=O)N[C@@H](C)C(C)(C)C)c3n2)sc1C(=O)N1CC(CO)(CO)C1 [Example I-222, 2-[5-(3,3-Bis-hydroxymethyl-azetidine-1-carbonyl)-4-methyl-thiophen-2-yl]-5H-pyrrolo[2,3-b]pyrazine-7-carboxylic acid ((S)-1,2,2-trimethyl-propyl)-amide]"
2,20.2,"CC(=O)N[C@@H]1CCc2ccc(Oc3cnc4[nH]cc(C(=O)N[C@@H](C)C(C)(C)C)c4n3)cc21 [Example I-287, 2-((R)-3-Acetylamino-indan-5-yloxy)-5H-pyrrolo[2,3-b]pyrazine-7-carboxylic acid ((S)-1,2,2-trimethyl-propyl)-amide]"
3,346,"CC(=O)N1CCC(CNC(=O)c2c[nH]c3ncc(C4CC4)nc23)C1 (stereo not shown) [Example I-137, 2-Cyclopropyl-5H-pyrrolo[2,3-b]pyrazine-7-carboxylic acid (1-acetyl-pyrrolidin-3-ylmethyl)-amide]"
4,92.4,"CC(C)(O)[C@@H](NC(=O)c1c[nH]c2ncc(C3CC3)nc12)C1CC1 [Example I-73, 2-Cyclopropyl-5H-pyrrolo[2,3-b]pyrazine-7-carboxylic acid ((S)-1-cyclopropyl-2-hydroxy-2-methyl-propyl)-amide]"
5,3310,"CCNC(=O)c1c[nH]c2ncc(Oc3cccc(C#N)c3)nc12 [Example I-245, 2-(3-Cyano-phenoxy)-5H-pyrrolo[2,3-b]pyrazine-7-carboxylic acid ethylamide]"
6,3.9,"O=C(NC(C1CC1)C1CC1)c1c[nH]c2ncc(C3CC3)nc12 [Example I-80, 2-Cyclopropyl-5H-pyrrolo[2,3-b]pyrazine-7-carboxylic acid dicyclopropyl-methyl-amide]"
7,0.32,"CONC(=O)c1ccc(-c2cnc3[nH]cc(C(=O)N[C@@H](C)C(C)(C)C)c3n2)s1 [Example I-197, 2-(5-Methoxy-carbamoyl-thiophen-2-yl)-5H-pyrrolo[2,3-b]pyrazine-7-carboxylic acid ((S)-1,2,2-trimethyl-propyl)-amide]"
8,5.46,"C[C@H](NC(=O)c1c[nH]c2ncc(C3CC3)nc12)C(C)(C)C(F)(F)F [Example I-54, 2-Cyclopropyl-5H-pyrrolo[2,3-b]pyrazine-7-carboxylic acid ((S)-3,3,3-trifluoro-1,2,2-trimethyl-propyl)-amide]"
9,154,"C[C@H](NC(=O)c1c[nH]c2ncc(Oc3ccc(F)cc3F)nc12)C(C)(C)C [Example I-133, 2-(2,4-Difluoro-phenoxy)-5H-pyrrolo[2,3-b]pyrazine-7-carboxylic acid ((S)-1,2,2-trimethyl-propyl)-amide]"
10,65.1,"CCC[C@@](C)(O)[C@@H](C)NC(=O)c1c[nH]c2ncc(C3CC3)nc12 [Example I-84, 2-Cyclopropyl-5H-pyrrolo[2,3-b]pyrazine-7-carboxylic acid ((1R,2R)-2-hydroxy-1,2-dimethyl-pentyl)-amide]"
11,0.88,"C[C@H](NC(=O)c1c[nH]c2ncc(-c3cnn(C)c3)nc12)C1CCCCC1 [Example I-140, 2-(1-Methyl-1H-pyrazol-4-yl)-5H-pyrrolo[2,3-b]pyrazine-7-carboxylic acid ((S)-1-cyclohexyl-ethyl)-amide]"
12,1270,"CCNC(=O)c1c[nH]c2ncc(Oc3ccc4c(c3)[C@H](NC(C)=O)CC4)nc12 [Example I-271, 2-((R)-3-Acetylamino-indan-5-yloxy)-5H-pyrrolo[2,3-b]pyrazine-7-carboxylic acid ethylamide]"
13,4590,"CCNC(=O)c1c[nH]c2ncc(Oc3cccc(C(C)C)c3)nc12 [Example I-250, 2-(3-Isopropyl-phenoxy)-5H-pyrrolo[2,3-b]pyrazine-7-carboxylic acid ethylamide]"
14,0.08,"Cc1cc(-c2cnc3[nH]cc(C(=O)N[C@@H](C)C(C)(C)C)c3n2)sc1C(=O)N1CC2(COC2)C1 [Example I-221, 2-[4-Methyl-5-(2-oxa-6-aza-spiro[3.3]heptane-6-carbonyl)-thiophen-2-yl]-5H-pyrrolo[2,3-b]pyrazine-7-carboxylic acid ((S)-1,2,2-trimethyl-propyl)-amide]"
15,470,"CCNC(=O)c1c[nH]c2ncc(Oc3ccc4cc[nH]c4c3)nc12 [Example I-273, 2-(1H-Indol-6-yloxy)-5H-pyrrolo[2,3-b]pyrazine-7-carboxylic acid ethylamide]"
16,208,"CC(C)(CO)NC(=O)c1c[nH]c2ncc(C3CC3)nc12 [Example I-45, 2-Cyclopropyl-5H-pyrrolo[2,3-b]pyrazine-7-carboxylic acid (2-hydroxy-1,1-dimethyl-ethyl)-amide]"
17,2990,"CCNC(=O)c1c[nH]c2ncc(Oc3cccc4ccccc34)nc12 [Example I-261, 2-(Naphthalen-1-yloxy)-5H-pyrrolo[2,3-b]pyrazine-7-carboxylic acid ethylamide]"

row,IC50 [nM],Compound
1,7.49,"CC(C)(CO)CNC(=O)c1c[nH]c2ncc(Nc3ccccc3)nc12 [Example I-15, 2-Phenylamino-5H-pyrrolo[2,3-b]pyrazine-7-carboxylic acid (3-hydroxy-2,2-dimethyl-propyl)-amide]"
2,9.84,"CC(C)[C@H](CO)NC(=O)c1c[nH]c2ncc(C3CC3)nc12 [Example I-56, 2-Cyclopropyl-5H-pyrrolo[2,3-b]pyrazine-7-carboxylic acid ((R)-1-hydroxymethyl-2-methyl-propyl)-amide]"
3,126,"C[C@H](NC(=O)c1c[nH]c2ncc(C3CCCC3)nc12)C(C)(C)O [Example I-6, 2-Cyclopentyl-5H-pyrrolo[2,3-b]pyrazine-7-carboxylic acid ((S)-2-hydroxy-1,2-dimethyl-propyl)-amide]"
4,0.5,"C[C@H](NC(=O)c1c[nH]c2ncc(-c3ccc(C(=O)NCc4ccccc4)s3)nc12)C(C)(C)C [Example I-226, 2-(5-Benzylcarbamoyl-thiophen-2-yl)-5H-pyrrolo[2,3-b]pyrazine-7-carboxylic acid ((S)-1,2,2-trimethyl-propyl)-amide]"
5,0.23,"CC(NC(=O)c1ccc(-c2cnc3[nH]cc(C(=O)N[C@@H](C)C(C)(C)C)c3n2)s1)c1cccnc1 (stereo partly drawn) [Example I-171, 2-[5-(1-Pyridin-3-yl-ethylcarbamoyl)-thiophen-2-yl]-5H-pyrrolo[2,3-b]pyrazine-7-carboxylic acid ((S)-1,2,2-trimethyl-propyl)-amide]"
6,0.52,"Cc1ccc([C@@H](C)NC(=O)c2ccc(-c3cnc4[nH]cc(C(=O)N[C@@H](C)C(C)(C)C)c4n3)s2)cc1 [Example I-202, 2-[5-((R)-1-p-Tolyl-ethylcarbamoyl)-thiophen-2-yl]-5H-pyrrolo[2,3-b]pyrazine-7-carboxylic acid ((S)-1,2,2-trimethyl-propyl)-amide]"
7,16,"CC(C)(C#N)C(NC(=O)c1c[nH]c2ncc(C3CC3)nc12)C1CC1 (stereo not shown) [Example I-81, 2-Cyclopropyl-5H-pyrrolo[2,3-b]pyrazine-7-carboxylic acid (2-cyano-1-cyclopropyl-2,2-dimethyl-ethyl)-amide]"
8,37.7,"CC[C@H](CO)NC(=O)c1c[nH]c2ncc(C3CC3)nc12 [Example I-58, 2-Cyclopropyl-5H-pyrrolo[2,3-b]pyrazine-7-carboxylic acid ((R)-1-hydroxymethyl-propyl)-amide]"
9,0.32,"C[C@H](NC(=O)c1c[nH]c2ncc(-c3ccc(C(=O)N4CCC4)s3)nc12)C(C)(C)C [Example I-180, 2-[5-(Azetidine-1-carbonyl)-thiophen-2-yl]-5H-pyrrolo[2,3-b]pyrazine-7-carboxylic acid ((S)-1,2,2-trimethyl-propyl)-amide]"
10,143,"CC(CO)CNC(=O)c1c[nH]c2ncc(C3CC3)nc12 (stereo not shown) [Example I-69, 2-Cyclopropyl-5H-pyrrolo[2,3-b]pyrazine-7-carboxylic acid (3-hydroxy-2-methyl-propyl)-amide]"
11,0.55,"C[C@H](NC(=O)c1c[nH]c2ncc(-c3cnn(C)c3)nc12)C(C)(C)C#N [Example I-139, 2-(1-Methyl-1H-pyrazol-4-yl)-5H-pyrrolo[2,3-b]pyrazine-7-carboxylic acid ((S)-2-cyano-1,2,2-trimethyl-ethyl)-amide]"
12,0.62,"CC1CCCC(C)N1C(=O)c1ccc(-c2cnc3[nH]cc(C(=O)N[C@@H](C)C(C)(C)C)c3n2)s1 (stereo partly drawn) [Example I-181, 2-[5-(2,6-Dimethyl-piperidine-1-carbonyl)-thiophen-2-yl]-5H-pyrrolo[2,3-b]pyrazine-7-carboxylic acid ((S)-1,2,2-trimethyl-propyl)-amide]"
13,573,"CC(C)NC(=O)c1c[nH]c2ncc(Oc3ccc4c(c3)C(=O)CC4)nc12 [Example I-297, 2-(3-Oxo-indan-5-yloxy)-5H-pyrrolo[2,3-b]pyrazine-7-carboxylic acid isopropylamide]"
14,128,"CC[C@@H](CO)NC(=O)c1c[nH]c2ncc(C3CC3)nc12 [Example I-40, 2-Cyclopropyl-5H-pyrrolo[2,3-b]pyrazine-7-carboxylic acid ((S)-1-hydroxymethyl-propyl)-amide]"
15,45,"Cc1ccc(-c2cnc3[nH]cc(C(=O)N[C@@H](C)C(C)(C)O)c3n2)cn1 [Example I-21, 2-(6-Methyl-pyridin-3-yl)-5H-pyrrolo[2,3-b]pyrazine-7-carboxylic acid ((S)-2-hydroxy-1,2-dimethyl-propyl)-amide]"
16,0.1,"C[C@H](NC(=O)c1c[nH]c2ncc(-c3ccc(C(=O)N4CCC(C)(O)CC4)s3)nc12)C(C)(C)C [Example I-175, 2-[5-(4-Hydroxy-4-methyl-piperidine-1-carbonyl)-thiophen-2-yl]-5H-pyrrolo[2,3-b]pyrazine-7-carboxylic acid ((S)-1,2,2-trimethyl-propyl)-amide]"
17,37,"CC(=O)N[C@@H]1CCc2cc(Oc3cnc4[nH]cc(C(=O)N[C@@H](C)C(C)(C)C)c4n3)ccc21 [Example I-291, 2-((R)-1-Acetylamino-indan-5-yloxy)-5H-pyrrolo[2,3-b]pyrazine-7-carboxylic acid ((S)-1,2,2-trimethyl-propyl)-amide]"
